Measurements taken from publication PMC11645656, “MRGPRX4 mediates phospho-drug associated pruritus in a humanized mouse model” (Science translational medicine, 2024).
Several values for one entry are separate records, joined by “and”; a condition that tells them apart may be missing. Identical values can stand only once. Counter-ions that a name gives are not always drawn.

What was measured:
[1] = target: T1, MRGPRX4 (S83) (Homo sapiens, UniProt Q96LA9, L83S); experiment: EC50 determination, intracellular calcium mobilization in MRGPRX4 stably expressed HEK293 cells (FLIPR Calcium 5, Flexstation-3); assay type: cell-based; set-up: Fig. 1D dose-response, calcium mobilization response (individual replicate) / calcium mobilization response (Fig. 1D dose-response raw data): unit not given here; conditions: for Fig. 1D dose-response, calcium response at Concentration (M): propofol series, individual replicate values
T1 construct: expressed in transfected cells
Summary of the method: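 EC50 came from a four-parameter logistic fit to averaged triplicate responses, each response being maximum post-stimulation signal less baseline. Intracellular calcium was monitored with Calcium 5 dye in HBSS with 20 mM HEPES, pH 7.4, after 1 h dye loading at 37 °C, using stably transfected HEK293 cells and parental controls.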

[2] = tested on: NP2-WT mice; experiment: Itch behavioral study (scratching bouts after subcutaneous nape injection) in littermate control NP2-WT mice; assay type: in vivo; conditions: 30 min after injection of 50 μl 10 mM into the nape, each cell one mouse
Excerpt: Fig. 2. Phosphate monoester prodrugs induce itch in NP2-MRGPRX4+ mice through activating NP2 primary sensory neurons. (A) Mating strategy to generate NP2-X4+ mice. (B) In situ hybridization showing MRGPRX4 transcripts (magenta) in NP2-X4+ DRG as indicated by arrowheads (left) but not in littermate control NP2-WT (right). NP2 subpopulation accounts for 5% of total DRG neurons. DAPI, blue. Scale bar, 50 μm. […] . Data are expressed as mean ± SEM. *p< 0.05, **p< 0.01 and ***p< 0.001 by two-tailed unpaired Student’s t-test. ns = no statistical significance observed. (D and E) Traces of average (top, depicted as mean ± 95% confidence interval) and individual (bottom, reflected by the heatmap) calcium activity, measured by fluorescence intensity normalized to the baseline intensity (FT/F0) over time of NP2-X4+ (D) and NP2-WT (E) DRG neurons labelled with GCaMP6s (n = 110–150 neurons pooled from 3–7 independent culture vessels from 2–4 mice in each condition). 10 μM phospho-drugs and 1 mM CQ were added as indicated by the arrowheads. Neurons with FT/F0 > 1.5 after compound application were considered a positive responder. NP2-X4+: NP2-MRGPRX4+; DRG, dorsal root ganglia; CQ: chloroquine.
. All the animals used were heterozygous unless otherwise specified. NP2-X4+ and NP2-WT littermates were generated by crossing Mrgpra3-Cre to Rosa26-lsl-MRGPRX4 as detailed previously ([15]). NP2-X4+ mice were further crossed to homozygous Rosa26-lsl-GCaMP6s to obtain NP2-WT/GCaMP6s and NP2-X4+/GCaMP6s animals. A detailed mating strategy is illustrated in fig. S5. Pirt-Cre-GCaMP6s animals were acquired by crossing Pirt-Cre to homozygous Rosa26-lsl-GCaMP6s. Pirt-Cre animals were generated through homologous recombination as indicated previously ([37]). Rosa26-lsl-GCaMP6s mouse line was provided by Dr. Dwight Bergles’ lab at the Johns Hopkins School of Medicine.

[3] = tested on: NP2-X4+ mice (MRGPRX4 in Mrgpra3+ NP2 sensory neurons); experiment: Itch behavioral study (scratching bouts after subcutaneous nape injection) in NP2-X4+ mice; assay type: in vivo, mouse; conditions: for Scratching / itch behavior, NP2-X4+ mice vs WT littermates: 30 min; for Scratching bouts of individual animals: NP2-X4+, 30 min after injection of 50 μl 10 mM into the nape, each cell one mouse

T1 sequence (Q96LA9 whole entry L83S): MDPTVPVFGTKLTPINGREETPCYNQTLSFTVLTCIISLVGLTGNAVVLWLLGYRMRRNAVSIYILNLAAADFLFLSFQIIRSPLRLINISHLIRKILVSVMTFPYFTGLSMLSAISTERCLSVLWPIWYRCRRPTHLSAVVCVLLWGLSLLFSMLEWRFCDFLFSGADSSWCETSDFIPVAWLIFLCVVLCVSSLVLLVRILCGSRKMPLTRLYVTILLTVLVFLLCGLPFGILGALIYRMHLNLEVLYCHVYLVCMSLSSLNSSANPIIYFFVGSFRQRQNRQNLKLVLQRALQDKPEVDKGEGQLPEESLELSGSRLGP

CC(=O)OCC(=O)[C@@]1(O)[C@H](C)C[C@H]2[C@@H]3CCC4=CC(=O)C=C[C@]4(C)[C@@]3(F)[C@@H](O)C[C@@]21C [Dexamethasone acetate]
Fig. 1D dose-response, calcium mobilization response (individual replicate) ([1]; Concentration 9.76563e-7 M): -48.502 and -46.356 and -48.988 and -43.676 and -48.158 and -43.385 and -85.123 and -4.652 and -42.229
Fig. 1D dose-response, calcium mobilization response (individual replicate) ([1]; Concentration 1.95313e-6 M): -22.164 and -36.691 and -35.570 and -37.729 and -34.474 and -34.794 and -19.078 and -53.999 and -20.889
Fig. 1D dose-response, calcium mobilization response (individual replicate) ([1]; Concentration 3.90625e-6 M): -39.055 and -53.135 and -70.767 and -48.544 and -36.360 and -36.045 and -91.099 and -38.430 and -1.751
Fig. 1D dose-response, calcium mobilization response (individual replicate) ([1]; Concentration 7.8125e-6 M): -33.331 and -71.560 and -49.660 and -45.756 and -42.005 and -31.885 and -29.162 and -70.876 and -31.653
Fig. 1D dose-response, calcium mobilization response (individual replicate) ([1]; Concentration 1.5625e-5 M): -37.387 and -60.340 and -52.439 and -33.449 and -38.008 and -34.728 and -69.819 and -42.708 and -12.221
Fig. 1D dose-response, calcium mobilization response (individual replicate) ([1]; Concentration 3.125e-5 M): -47.434 and -56.549 and -63.778 and -43.258 and -41.889 and -38.256 and -62.786 and -46.904 and -33.452
Fig. 1D dose-response, calcium mobilization response (individual replicate) ([1]; Concentration 6.25e-5 M): -61.858 and -50.883 and -76.723 and -47.363 and -44.877 and -37.522 and -10.190 and -37.194 and -110.631
Fig. 1D dose-response, calcium mobilization response (individual replicate) ([1]; Concentration 0.00025 M): -64.043 and -50.303 and -56.027 and -44.560 and -42.575 and -45.473 and -89.145 and -53.447 and -8.636
Fig. 1D dose-response, calcium mobilization response (individual replicate) ([1]; Concentration 0.0005 M): -48.359 and -6.029 and -35.851 and -38.822 and -45.234 and -19.021 and -30.402 and -28.831 and -36.978
Fig. 1D dose-response, calcium mobilization response (individual replicate) ([1]; Concentration 0.001 M): -37.786 and -38.347 and -50.572 and -37.033 and -22.575 and -15.877 and -9.453 and -18.673 and -62.758
Scratching bouts of individual animals [2]: 20 and 31 and 30 and 18 and 14 and 9 and 75 and 34 and 3
Itch in both NP2-X4+ and littermate WT controls ([3]; 50 μl 10 mM nape injection): slightly elevated itch
Scratching / itch behavior, NP2-X4+ mice vs WT littermates ([3]; 50 μl 10 mM nape injection): no differences in itch behavior were detected
Scratching bouts of individual animals [3]: 0 and 26 and 59 and 22 and 2 and 3 and 9 (2×) and 20

CC(C)c1cccc(C(C)C)c1OS(=O)(=O)O [Propofol sulfate]
Fig. 1D dose-response, calcium response at Concentration (M) ([1]; 9.76563e-7 M): -9.765 and -0.941 and -3.534 and -7.698 and -0.440 and -6.103 and -0.412 and -8.690 and -5.139
Fig. 1D dose-response, calcium response at Concentration (M) ([1]; 1.95313e-6 M): 6.750 and 16.267 and 9.058 and 9.006 and 15.719 and 7.351 and 7.826 and 16.017 and 8.232
Fig. 1D dose-response, calcium response at Concentration (M) ([1]; 3.90625e-6 M): 4.213 and 7.941 and 5.294 and 9.099 and 3.195 and 5.153 and 8.684 and 2.706 and 6.058
Fig. 1D dose-response, calcium response at Concentration (M) ([1]; 7.8125e-6 M): -1.463 and -6.718 and -3.371 and -0.821 and -4.964 and -5.766 and -0.353 and -2.243 and -8.955
Fig. 1D dose-response, calcium response at Concentration (M) ([1]; 1.5625e-5 M): -10.261 and -6.059 and -2.116 and -7.312 and -10.479 and -0.646 and -4.250 and -7.396 and -6.790
Fig. 1D dose-response, calcium response at Concentration (M) ([1]; 3.125e-5 M): -14.578 and -1.085 and -26.180 and -14.763 and -11.464 and -15.617 and -4.490 and -19.590 and -17.764
Fig. 1D dose-response, calcium response at Concentration (M) ([1]; 6.25e-5 M): -6.291 and -44.109 and -11.407 and -17.994 and -28.042 and -15.772 and -23.530 and -32.512 and -5.766
Fig. 1D dose-response, calcium response at Concentration (M) ([1]; 0.00025 M): -9.210 and -19.710 and -18.950 and -19.770 and -23.073 and -5.027 and -19.240 and -15.426 and -13.204
Fig. 1D dose-response, calcium response at Concentration (M) ([1]; 0.0005 M): -0.269 and -0.640 and -0.169 and -0.708 and -0.172 and -0.198 and -0.248 and -0.541 and -0.289
Fig. 1D dose-response, calcium response at Concentration (M) ([1]; 0.001 M): 6.469 and 6.229 and 2.832 and 5.169 and 2.033 and 8.329 and 8.781 and 6.580 and 0.170
Scratching bouts of individual animals [2]: 15 and 0 and 6 and 5 and 3 and 11
Scratching / itch behavior, NP2-X4+ mice vs WT littermates ([3]; 50 μl 10 mM nape injection): no differences in itch behavior were detected
Scratching bouts of individual animals [3]: 4 and 14 (2×) and 2 and 12 (2×) and 11 and 42 and 6
